Results as given in patent US7129258B2, “Substituted benzoxazoles as estrogenic agents” (priority 2001, dated 2006).
Where “and” joins values, the source holds several entries; their conditions need not be identical. Equal entries are not always repeated. Marks after values point to notes of the source that are not given here.

What was measured:
[1] = tested on: Sexually immature Sprague-Dawley rats (uterine weight); assay: Rat uterotrophic test procedure (Procedure 1); assay type: in vivo; conditions: 0.06 μg/rat s.c., days 19-21, alone
morphine-addicted rats = assay: Rat hot flush test procedure (tail skin temperature after naloxone); assay type: in vivo; conditions: 0.3 mg/kg
Text: Rat Hot Flush Test Procedure
The effect of test compounds on hot flushes can be evaluated in a standard pharmacological test procedure which measures the ability of a test compound to blunt the increase in tail skin temperature which occurs as morphine-addicted rats are acutely withdrawn from the drug using naloxone [Merchenthaler, et al., Maturitas 30: 307–16 (1998)]. It can also be used to detect estrogen receptor antagonist activity by co-dosing test compound with the reference estrogen. The following data were obtained from representative compounds of the invention (Table (7))

[2] = tested on: Sexually immature 129 SvE mice (uterine weight); assay: Mouse uterotrophic test procedure (Procedure 2); assay type: in vivo; conditions: 50 mg/kg s.c., days 22-25
[3] = tested on: ovariectomized Sprague-Dawley rats (proximal tibia); assay: Bone mineral density in the ovariectomized rat; assay type: in vivo; conditions: 5 weeks
[4] = tested on: casein kinase II mRNA in mammary fat pad; assay: Mammary end bud test procedure (rat mammotrophic assay); assay type: in vivo
Procedure: Evaluation in the Mammary End Bud Test Procedure
Estrogens are required for full ductal elongation and branching of the mammary ducts, and the subsequent development of lobulo-alveolar end buds under the influence of progesterone. In this test procedure, the mammotrophic activity of selected compounds of the invention was evaluated according to the following standard pharmacological test procedure. Twenty-eight day old Sprague-Dawley rats (Taconic Farms) were ovariectomized and rested for nine days. Animals were housed under a 12-hour light/dark cycle, fed a casein-based Purina Laboratory Rodent Diet 5K96 (Purina, Richmond, Ind.) and allowed free access to water. […] The following results were obtained for representative compounds of the invention (Table (8)).

HLA-B27 rats = assay: HLA rat test procedure for inflammatory bowel disease (stool score 3 = diarrhea, 2 = soft stool, 1 = normal stool; colon histology); assay type: in vivo
[5] = tested on: Lewis rats, Freund's Adjuvant-Complete induced arthritis; assay: Lewis rat adjuvant-induced arthritis, inhibition test procedure; assay type: in vivo; conditions: Inhibition protocol, s.c. daily from Day 1
[6] = tested on: Lewis rats, Freund's Adjuvant-Complete induced arthritis; assay: Lewis rat adjuvant-induced arthritis, treatment test procedure; assay type: in vivo; conditions: Treatment protocol, s.c. daily, begun Day 8 after adjuvant injection
[7] = tested on: human endometrial tissue implanted into ovariectomized athymic nude mice; assay: Endometriosis test procedure; assay type: in vivo, mouse; conditions: 10 mg/kg oral daily
Procedure: Evaluation in an Endometriosis Standard Pharmacologic Test Procedure This procedure is slightly modified from a published method [Bruner-Tran. et al., Journal of Clinical Investigation 99: 2851–2857. (1997)]. […] Lesions are allowed to establish for at least 10 days, then oral daily dosing begins and continues for at least 15 days. It should be noted that all mice have visible lesions at the start of dosing. At necropsy the number of mice with lesions is determined as well as the lesions per mouse.

[8] = Study C colon histology, oral 7 weeks, 10 mg/kg days 1–18 then 20 mg/kg, mean ± SD
[9] = Study C colon histology, oral 7 weeks, 10 mg/kg days 1–24 then 20 mg/kg, mean ± SD
[10] = Study B colon histology, oral 4 weeks, 10 mg/kg days 1–14 then 20 mg/kg, mean ± SD

C#C[C@]1(O)CC[C@H]2[C@@H]3CCc4cc(O)ccc4[C@H]3CC[C@@]21C [17α-ethinyl, 17β-estradiol, 17α-ethinyl-17β-estradiol]
mean uterine weight ± SEM [1]: 104.7 ± 5.4 mg and 85.5 ± 3.1 mg | Temperature change 15 minutes after naloxone injection (mean ± SEM) (morphine-addicted rats): 2.12 ± 1.14

C[C@]12CC[C@@H]3c4ccc(O)cc4CC[C@H]3[C@@H]1CC[C@@H]2O [17β-estradiol]
mean uterine weight ± SEM [2]: 41.9 ± 2.9 mg and 40.0 ± 2.0 mg and 35.6 ± 4.4 mg and 40.5 ± 5.84 mg and 42.9 ± 4.8 mg and 41.7 ± 3.6 mg | Total Bone Mineral Density (mean ± SEM) ([3]; 2 μg/rat s.c.): 639.49 ± 14.47 mg/mL | Trabecular Bone Mineral Density (mean ± SEM) ([3]; 2 μg/rat s.c.): 453.28 ± 24.93 mg/mL | Casein kinase II mRNA/18 S rRNA (mean ± SEM) ([4]; 0.1 mg/kg s.c. + Progesterone (30 mg/kg)): 39.0 ± 5.36

Oc1cc(Br)c2oc(-c3ccc(O)c(F)c3)nc2c1 [Example 21, 7-Bromo-2-(3-fluoro-4-hydroxyphenyl)-1,3-benzoxazol-5-ol]
Total Bone Mineral Density (mean ± SEM) ([3]; 10 mg/kg s.c.): 501.40 ± 11.97 mg/mL | Trabecular Bone Mineral Density (mean ± SEM) ([3]; 10 mg/kg s.c.): 312.34 ± 19.73 mg/mL | Fibrosis (0–2) (HLA-B27 rats; [8]): 0.56 ± 0.32 | Lesion depth (0–2) (HLA-B27 rats; [8]): 0.75 ± 0.50 | Ulceration (0–2) (HLA-B27 rats; Study C colon histology, oral 7 weeks, 10 mg/kg then 20 mg/kg, mean ± SD): 0.81 ± 0.47 | scores on all disease parameters vs vehicle-treated rats (in words) (HLA-B27 rats; Study C, oral, 10 mg/kg then 20 mg/kg): not statistically significant, were lower

C=Cc1cc(O)cc2nc(-c3ccc(O)c(F)c3)oc12 [Example 24, 2-(3-Fluoro-4-hydroxyphenyl)-7-vinyl-1,3-benzoxazol-5-ol]
Casein kinase II mRNA/18 S rRNA (mean ± SEM) ([4]; 20 mg/kg s.c. + Progesterone (30 mg/kg)): 3.98 ± 0.79 | Stool quality (in words) (HLA-B27 rats; Study A, 50 mg/kg s.c. once per day): improved | Fibrosis (0–2) (HLA-B27 rats; [9]): 0* | Inflammation (0–3) (HLA-B27 rats; [9]): 0.69 ± 0.24 | Lesion depth (0–2) (HLA-B27 rats; [9]): 0* | Total score (HLA-B27 rats; [9]): 0.69 ± 0.24 | Ulceration (0–2) (HLA-B27 rats; [9]): 0* | total disease score, intestinal histology (in words) (HLA-B27 rats; Study C, oral, 10 mg/kg days 1–24 then 20 mg/kg): significantly reduced | measurements of tissue injury, colon histology (in words) (HLA-B27 rats; composite of two subcutaneous dosing studies, including Study A): effective in reducing several measurements of tissue injury | Joint inflammation score (maximal score per day 12) ([5]; Day 1): 0.00 | Joint inflammation score (maximal score per day 12) ([5]; Day 2): 1.00 | Joint inflammation score (maximal score per day 12) ([5]; Day 3): 4.50 | Joint inflammation score (maximal score per day 12) ([5]; Day 15): 3.00 | Joint inflammation score (maximal score per day 12) ([5]; Day 17): 1.50 | Joint inflammation score (maximal score per day 12) ([6]; Day 4): 9.50 | Joint inflammation score (maximal score per day 12) ([6]; Day 5): 8.00 | Joint inflammation score (maximal score per day 12) ([6]; Day 6): 7.00 | Joint inflammation score (maximal score per day 12) ([6]; Day 9): 3.50 | Joint inflammation score (maximal score per day 12) ([6]; Day 17): 2.00 | lesions at necropsy compared with mice dosed with vehicle ([7]; evaluated three times): fewer lesions | lesions found per animal (mice with lesions) ([7]; Study 1): one | mice with lesion regression ([7]; Study 1): four of six | mice with any lesions at necropsy ([7]; Study 1, all mice had lesions at start of dosing): two of six

C=Cc1cc(O)cc2nc(-c3ccc(O)cc3F)oc12 [Example 25, 2-(2-Fluoro-4-hydroxyphenyl)-7-vinyl-1,3-benzoxazol-5-ol]
Fibrosis (0–2) (HLA-B27 rats; [10]): 0.31 ± .13 | Inflammation (0–3) (HLA-B27 rats; [10]): 1.50 ± 0.35 | Lesion depth (0–2) (HLA-B27 rats; [10]): 0.44 ± 0.24 | Ulceration (0–2) (HLA-B27 rats; [10]): 0.44 ± 0.24

C=Cc1cc(O)cc2nc(-c3ccc(O)cc3)oc12 [Example 27, 2-(4-Hydroxyphenyl)-7-vinyl-1,3-benzoxazol-5-ol]
Joint inflammation score (maximal score per day 12) ([6]; Day 8): 5.00 | Joint inflammation score (maximal score per day 12) ([6]; Day 15): 2.00 | Joint inflammation score (maximal score per day 12) ([6]; Day 16): 2.00 | Joint inflammation score (maximal score per day 12) ([6]; Day 17): 1.50

C=C(Br)c1cc(O)cc2nc(-c3ccc(O)cc3F)oc12 [Example 32, 7-(1-Bromovinyl)-2-(2-fluoro-4-hydroxyphenyl)-1,3-benzoxazol-5-ol]
Joint inflammation score (maximal score per day 12) ([6]; Day 1): 11.33 | Joint inflammation score (maximal score per day 12) ([6]; Day 2): 10.83 | Joint inflammation score (maximal score per day 12) ([6]; Day 3): 9.33 | Joint inflammation score (maximal score per day 12) ([6]; Day 4): 8.00 | Joint inflammation score (maximal score per day 12) ([6]; Day 5): 5.83 | Joint inflammation score (maximal score per day 12) ([6]; Day 6): 3.33 | Joint inflammation score (maximal score per day 12) ([6]; Day 7): 3.00 | Joint inflammation score (maximal score per day 12) ([6]; Day 8): 2.50 | Joint inflammation score (maximal score per day 12) ([6]; Day 9): 2.50 | Joint inflammation score (maximal score per day 12) ([6]; Day 10): 2.50 | Joint inflammation score (maximal score per day 12) ([6]; Day 11): 2.50 | Joint inflammation score (maximal score per day 12) ([6]; Day 12): 2.50 | Joint inflammation score (maximal score per day 12) ([6]; Day 13): 2.50 | Joint inflammation score (maximal score per day 12) ([6]; Day 14): 2.50 | Joint inflammation score (maximal score per day 12) ([6]; Day 15): 2.00 | Joint inflammation score (maximal score per day 12) ([6]; Day 16): 1.33 | Joint inflammation score (maximal score per day 12) ([6]; Day 17): 1.00
